Test results: patent publication US9913820B2, “Antimicrobial compositions comprising glyceryl nitrates” (Board of Regents, The University of Texas System, priority 2012, dated 2018)
Where two headings read alike, the source gives them in different places.

Assays:
[1] = system: Methicilin resistant Staphyloccus aureus (MRSA) biofilm; test: Modified Kuhns Biofilm Eradication Model (silicone discs), MRSA; format: cell-based; conditions: for viable colonies recovered from the biofilm eradication procedure: MRSA, 2 hrs; for GTN concentration required to eradicate MRSA: 7% citrate
[2] = system: Pseudomonas aeruginosa (PA) biofilm; test: Modified Kuhns Biofilm Eradication Model (silicone discs), PA; format: cell-based; conditions: for viable colonies recovered from the biofilm eradication procedure: PA, 2 hrs
[3] = system: Candida albicans (CA) biofilm; test: Modified Kuhns Biofilm Eradication Model (silicone discs), CA; format: cell-based; conditions: for viable colonies recovered from the biofilm eradication procedure: CA, 2 hrs
[4] = system: Staphylococcus aureus, Pseudomonas aeruginosa and Candida albicans biofilms; conditions: in the presence of ethanol and citrate
[5] = 10% ethanol and 7% citrate, FIG. 5

O=C(O)CC(O)(CC(=O)O)C(=O)O [Citrate]
viable colonies recovered from the biofilm eradication procedure ([1]; component alone at 7%): 2.92E+04 cfu/ml
viable colonies recovered from the biofilm eradication procedure ([2]; component alone at 7%): 2.24E+04 cfu/ml
eradication of mature biofilm within 2 hours (in words) ([2]; Pseudomonas Aeruginosa, 7% alone): neither 1 mg/ml GTN nor 7% citrate alone were able to eradicate
viable colonies recovered from the biofilm eradication procedure ([3]; component alone at 7%): 2.16E+04 cfu/ml
eradication of mature biofilm within 2 hours (in words) ([3]; Candida Albicans, 7% alone): neither 1 mg/ml GTN nor 7% citrate alone were able to eradicate

CCN(CC)C(=S)SSC(=S)N(CC)CC [Disulfiram]
viable colonies recovered from the biofilm eradication procedure ([1]; component alone at 0.2 mg/ml): 2.00E+04 cfu/ml
viable colonies recovered from the biofilm eradication procedure ([2]; component alone at 0.2 mg/ml): 5.00E+05 cfu/ml
viable colonies recovered from the biofilm eradication procedure ([3]; component alone at 0.2 mg/ml): 0.00E+00 cfu/ml

O=[N+]([O-])OCC(CO[N+](=O)[O-])O[N+](=O)[O-] [GTN, glyceryl trinitrate]
GTN concentration that fully eradicated MRSA [1, 5]: 0.5 mg/mL
GTN concentration required to eradicate MRSA ([1]; 15% ethanol, FIG. 6): 0.2 mg/mL
GTN concentration required to eradicate MRSA ([1]; 20% ethanol, FIG. 7): 0.1 mg/mL
viable colonies recovered from the biofilm eradication procedure ([1]; component alone at 1 mg/ml): 5.00E+03 cfu/ml
eradication of mature biofilm within 2 hours (in words) [2]: neither 1 mg/ml GTN nor 7% citrate alone were able to eradicate
GTN concentration that eradicated P.aeruginosa [2, 5]: 0.2 mg/mL
viable colonies recovered from the biofilm eradication procedure ([2]; component alone at 1 mg/ml): 2.05E+03 cfu/ml
eradication of mature biofilm within 2 hours (in words) [3]: neither 1 mg/ml GTN nor 7% citrate alone were able to eradicate
GTN concentration that eradicated C. albicans [3, 5]: 0.2 mg/mL
viable colonies recovered from the biofilm eradication procedure ([3]; component alone at 1 mg/ml): 5.00E+03 cfu/ml
GTN concentration to fully eradicate mature biofilms within 2 hours [4]: 100 microgram/ml
reduction of GTN concentration versus what would be needed by itself ([4]; full eradication within 2 hours): 10 fold

O=S(=O)(O)CCS [MesNA]
viable colonies recovered from the biofilm eradication procedure ([1]; component alone at 5%): 5.00E+05 cfu/ml
viable colonies recovered from the biofilm eradication procedure ([2]; component alone at 5%): 5.00E+05 cfu/ml
viable colonies recovered from the biofilm eradication procedure ([3]; component alone at 5%): 5.00E+05 cfu/ml
